Series [1] can be described thus: Highest frequency of moderate liver toxicity observed during clinical trials, expressed as a percentage. [column '% BIOL' in source]. The note with it: human.
The nature of series [2]: Highest frequency of acute liver toxicity observed during clinical trials, expressed as a percentage. [column '% AIGUE' in source]. The note with it: human.
For series [3] the following is noted: human, serum.
The conditions of series [4]: human, serum. This is another data set of the same source.
For series [5] the following is noted: human.
For series [6] the following is noted: human. The source holds these as a separate data set.
For series [7] the following is noted: human. The source holds these as a separate data set.
For series [8] the following is noted: human, serum, 4383 h.
For series [9] the following is noted: human. This is another data set of the same source.
The conditions of series [10]: human. This is another data set of the same source.
For series [11] the following is noted: human. The source holds these as a separate data set.
For series [12] the following is noted: human. This is another data set of the same source.
For series [13] the following is noted: human. This is another data set of the same source.
The conditions of series [14]: human. This is another data set of the same source.
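Throughout, for Hepatotoxicity (association with vascular disease): count of indexed literature references reporting vascular liver injury in humans, e.g. peliosis hepatitis, hepatic veno-occlusive disease or Budd-Chiari syndrome.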
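Throughout, for Hepatotoxicity (benign tumour): value is a count of indexed literature references citing a benign tumour confirmed by histopathology.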
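Throughout, for Hepatotoxicity (choleostasis): human cholestatic liver injury, shown by histopathology or by peak ALT or AST elevation over alkaline phosphatase ratio below 2, value counts indexed literature reports.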
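Throughout, for Hepatotoxicity (chronic liver disease): chronic liver injury confirmed by histopathology or persistently raised serum aminotransferase activity beyond 6 months, value given as the count of indexed literature references.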
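Throughout, for Hepatotoxicity (cirrhosis): value is a count of indexed literature references reporting cirrhosis confirmed by histopathology.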
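Throughout, for Hepatotoxicity (cytolytic): human cytolytic liver injury, shown by histopathology or by a ratio above 5 of peak ALT or AST elevation to alkaline phosphatase elevation, value counts indexed references.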
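Throughout, for Hepatotoxicity (granulomatous hepatitis): value is a count of indexed literature references reporting granulomatous liver disease confirmed by histopathology.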
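Throughout, for Hepatotoxicity (malignant tumour): malignant tumour confirmed by histopathology, value gives the count of indexed literature references reporting it.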
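Throughout, for Hepatotoxicity (severe hepatitis): human clinical data: severe hepatitis, meaning potentially life-threatening liver failure or clinically observed cases, the value counts how many indexed literature references report it.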
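Throughout, for Hepatotoxicity (steatosis): steatosis confirmed by histopathology, value is the count of indexed references.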

Turning to `CC(C)NCC(O)COc1ccc(COCCOC(C)C)cc1` (stereo not drawn) [BISOPROLOL], the results for the “Hepatotoxicity (moderate)” value in series [1] and in series [3] were 7.1% and 3, respectively. Besides, the “Hepatotoxicity (acute)” value in series [2] was found to be 0%; in [4], 0. The “Hepatotoxicity (cytolytic)” value in [5] was determined as 0. For the same compound, the “Hepatotoxicity (choleostasis)” value in series [6] turned out to be 0. Besides, the “Hepatotoxicity (severe hepatitis)” value in series [7] is given as 0. Besides, the “Hepatotoxicity (chronic liver disease)” value in [8] came out at 0. Moreover, the “Hepatotoxicity (cirrhosis)” value in series [9] came out at 0. The “Hepatotoxicity (granulomatous hepatitis)” value in [10] is reported as 0. In [11], the “Hepatotoxicity (association with vascular disease)” value is reported as 0. The “Hepatotoxicity (steatosis)” value in [12] came to 0. The “Hepatotoxicity (malignant tumour)” value in series [13] worked out at 0. The “Hepatotoxicity (benign tumour)” value in [14] is recorded as 0.

`Cc1cc2c(cc1CC(=O)c1sccc1S(=O)(=O)Nc1onc(C)c1Cl)OCO2` [SITAXENTAN]: the “Hepatotoxicity (moderate)” value in [1] stood at 0%; in series [3], 1. Also, the results for the “Hepatotoxicity (acute)” value in series [2] and in series [4] were 0% and 0, respectively. In addition, in series [5], the “Hepatotoxicity (cytolytic)” value was found to be 0. In [6], the “Hepatotoxicity (choleostasis)” value was 0. Besides, the “Hepatotoxicity (severe hepatitis)” value in [7] is given as 0. Besides, the “Hepatotoxicity (chronic liver disease)” value in series [8] is given as 0. For the same compound, the “Hepatotoxicity (cirrhosis)” value in [9] is reported as 0. Further, in [10], the “Hepatotoxicity (granulomatous hepatitis)” value is listed as 0. Moreover, in series [11], the “Hepatotoxicity (association with vascular disease)” value turned out to be 0. The “Hepatotoxicity (steatosis)” value in series [12] came to 0. Further, in [13], the “Hepatotoxicity (malignant tumour)” value is 0. Moreover, in series [14], the “Hepatotoxicity (benign tumour)” value is listed as 0.

As to `COC(=O)c1nc2cc(Cl)c3cccnc3c2o1` [QUAZOLAST], the “Hepatotoxicity (moderate)” value is 13% in series [1] and 1 in [3]. The “Hepatotoxicity (acute)” value came to 0% in [2] and 0 in series [4]. Besides, the “Hepatotoxicity (cytolytic)” value in series [5] stood at 0. The “Hepatotoxicity (choleostasis)” value in [6] is 0. Moreover, the “Hepatotoxicity (severe hepatitis)” value in series [7] is reported as 0. The “Hepatotoxicity (chronic liver disease)” value in series [8] was determined as 0. In addition, in series [9], the “Hepatotoxicity (cirrhosis)” value worked out at 0. Besides, the “Hepatotoxicity (granulomatous hepatitis)” value in series [10] is 0. Further, the “Hepatotoxicity (association with vascular disease)” value in [11] turned out to be 0. Besides, in series [12], the “Hepatotoxicity (steatosis)” value stood at 0. In addition, the “Hepatotoxicity (malignant tumour)” value in series [13] worked out at 0. Besides, the “Hepatotoxicity (benign tumour)” value in [14] is 0.

As for `COC(=O)C1=C(C)NC(C)=C(C(=O)O[C@H]2CCN(Cc3ccccc3)C2)[C@H]1c1cccc([N+](=O)[O-])c1` [BARNIDIPINE], the entries for the “Hepatotoxicity (moderate)” value in [1] and in series [3] were 6.5% and 1, respectively. Further, the entries for the “Hepatotoxicity (acute)” value in series [2] and in series [4] were 0% and 0, respectively. In series [5], the “Hepatotoxicity (cytolytic)” value amounted to 0. Moreover, in series [6], the “Hepatotoxicity (choleostasis)” value is reported as 0. For the same compound, the “Hepatotoxicity (severe hepatitis)” value in series [7] is on record as 0. In series [8], the “Hepatotoxicity (chronic liver disease)” value came out at 0. Also, the “Hepatotoxicity (cirrhosis)” value in series [9] was 0. Besides, the “Hepatotoxicity (granulomatous hepatitis)” value in [10] stood at 0. Moreover, the “Hepatotoxicity (association with vascular disease)” value in [11] was 0. Moreover, the “Hepatotoxicity (steatosis)” value in series [12] turned out to be 0. Also, in [13], the “Hepatotoxicity (malignant tumour)” value is 0. Further, in [14], the “Hepatotoxicity (benign tumour)” value is listed as 0.

In the case of `CN(C)CCN1C(=O)c2cccc3cc(N)cc(c23)C1=O` [AMONAFIDE], the “Hepatotoxicity (moderate)” value in series [1] came out at 44%; in series [3] it was 5. In addition, the “Hepatotoxicity (acute)” value in [2] was 0%; in [4], 0. Besides, the “Hepatotoxicity (cytolytic)” value in series [5] is listed as 0. Besides, the “Hepatotoxicity (choleostasis)” value in series [6] is listed as 0. In [7], the “Hepatotoxicity (severe hepatitis)” value turned out to be 0. In addition, the “Hepatotoxicity (chronic liver disease)” value in series [8] was determined as 0. For the same compound, in [9], the “Hepatotoxicity (cirrhosis)” value was 0. In [10], the “Hepatotoxicity (granulomatous hepatitis)” value worked out at 0. Further, in [11], the “Hepatotoxicity (association with vascular disease)” value is reported as 0. Further, the “Hepatotoxicity (steatosis)” value in series [12] worked out at 0. The “Hepatotoxicity (malignant tumour)” value in [13] turned out to be 0. The “Hepatotoxicity (benign tumour)” value in series [14] worked out at 0.

In the case of `CNC1CCCN(c2c(F)cc3c(=O)c(C(=O)O)cn(C4CC4)c3c2OC)C1` (stereo not drawn) [BALOFLOXACIN], the “Hepatotoxicity (moderate)” value in series [1] is listed as 28.6%; in [3], 23. In addition, the “Hepatotoxicity (acute)” value in series [2] amounted to 0%; in [4], 0. Also, the “Hepatotoxicity (cytolytic)” value in series [5] amounted to 0. Further, the “Hepatotoxicity (choleostasis)” value in series [6] came out at 0. Moreover, the “Hepatotoxicity (severe hepatitis)” value in series [7] was 0. The “Hepatotoxicity (chronic liver disease)” value in [8] was determined as 0. Moreover, in series [9], the “Hepatotoxicity (cirrhosis)” value was 0. Moreover, the “Hepatotoxicity (granulomatous hepatitis)” value in series [10] came out at 0. In series [11], the “Hepatotoxicity (association with vascular disease)” value is 0. In [12], the “Hepatotoxicity (steatosis)” value was 0. Further, the “Hepatotoxicity (malignant tumour)” value in [13] was determined as 0. Besides, the “Hepatotoxicity (benign tumour)” value in series [14] came out at 0.

Take `CC(OC(=O)OC1CCCCC1)OC(=O)C1=C(CSc2nnnn2CCN(C)C)CS[C@@H]2[C@H](NC(=O)Cc3csc(N)n3)C(=O)N12` (stereo partly drawn): the “Hepatotoxicity (moderate)” value in [1] was 28.6%; in series [3] it was 25. Further, the “Hepatotoxicity (acute)” value in [2] amounted to 0%; in [4], 0. Also, in series [5], the “Hepatotoxicity (cytolytic)” value was 0. Also, the “Hepatotoxicity (choleostasis)” value in series [6] is reported as 0. The “Hepatotoxicity (severe hepatitis)” value in series [7] is listed as 0. The “Hepatotoxicity (chronic liver disease)” value in series [8] is given as 0. Besides, the “Hepatotoxicity (cirrhosis)” value in series [9] stood at 0. For the same compound, in series [10], the “Hepatotoxicity (granulomatous hepatitis)” value is 0. The “Hepatotoxicity (association with vascular disease)” value in series [11] is 0. Also, the “Hepatotoxicity (steatosis)” value in series [12] stood at 0. Also, in series [13], the “Hepatotoxicity (malignant tumour)” value is reported as 0. For the same compound, the “Hepatotoxicity (benign tumour)” value in series [14] was determined as 0.

As to PALIVIZUMAB, the “Hepatotoxicity (moderate)” value in series [1] came to 3.6%; in series [3], 1. Moreover, the “Hepatotoxicity (acute)” value in [2] was 0%; in [4] it was 0. The “Hepatotoxicity (cytolytic)” value in [5] was found to be 0. Also, in [6], the “Hepatotoxicity (choleostasis)” value is 0. Also, the “Hepatotoxicity (severe hepatitis)” value in [7] worked out at 0. Besides, the “Hepatotoxicity (chronic liver disease)” value in [8] came to 0. For the same compound, the “Hepatotoxicity (cirrhosis)” value in series [9] was 0. Further, in series [10], the “Hepatotoxicity (granulomatous hepatitis)” value came to 0. Besides, the “Hepatotoxicity (association with vascular disease)” value in series [11] is reported as 0. In addition, in series [12], the “Hepatotoxicity (steatosis)” value amounted to 0. In addition, the “Hepatotoxicity (malignant tumour)” value in [13] amounted to 0. Also, in series [14], the “Hepatotoxicity (benign tumour)” value came out at 0.

Consider GALLIUM, for which the “Hepatotoxicity (moderate)” value was 28.6% in series [1] and 1 in series [3]. For the same compound, the “Hepatotoxicity (acute)” value stood at 21.4% in series [2] and 1 in series [4]. For the same compound, the “Hepatotoxicity (cytolytic)” value in series [5] is recorded as 0. In addition, the “Hepatotoxicity (choleostasis)” value in [6] worked out at 1. In addition, the “Hepatotoxicity (severe hepatitis)” value in series [7] is 0. Moreover, the “Hepatotoxicity (chronic liver disease)” value in [8] is reported as 0. The “Hepatotoxicity (cirrhosis)” value in series [9] stood at 0. For the same compound, the “Hepatotoxicity (granulomatous hepatitis)” value in series [10] stood at 0. Moreover, in [11], the “Hepatotoxicity (association with vascular disease)” value came out at 0. Also, in series [12], the “Hepatotoxicity (steatosis)” value came out at 0. The “Hepatotoxicity (malignant tumour)” value in series [13] turned out to be 0. In addition, in series [14], the “Hepatotoxicity (benign tumour)” value stood at 0.

Regarding `COC(=O)C1=C(C#N)NC(C)=C(C(=O)OC(C)C)C1c1cccc([N+](=O)[O-])c1` (stereo not drawn) [NILVADIPINE], the “Hepatotoxicity (moderate)” value in series [1] turned out to be 6.3%; in [3], 3. Moreover, the “Hepatotoxicity (acute)” value in series [2] stood at 0%; in series [4], 0. Also, the “Hepatotoxicity (cytolytic)” value in [5] was found to be 0. Moreover, the “Hepatotoxicity (choleostasis)” value in series [6] came to 0. For the same compound, in [7], the “Hepatotoxicity (severe hepatitis)” value was 0. Moreover, the “Hepatotoxicity (chronic liver disease)” value in series [8] worked out at 0. Besides, in series [9], the “Hepatotoxicity (cirrhosis)” value was determined as 0. Besides, the “Hepatotoxicity (granulomatous hepatitis)” value in series [10] came out at 0. Besides, the “Hepatotoxicity (association with vascular disease)” value in [11] is reported as 0. Besides, the “Hepatotoxicity (steatosis)” value in series [12] is reported as 0. Also, the “Hepatotoxicity (malignant tumour)” value in series [13] stood at 0. Moreover, the “Hepatotoxicity (benign tumour)” value in series [14] is 0.

Turning to `O=C(CCOCCOCCOCCOCCC(=O)Nc1c(I)cc(I)c(C(=O)O)c1I)Nc1c(I)cc(I)c(C(=O)O)c1I` [IODOXAMIC ACID], the “Hepatotoxicity (moderate)” value in [1] is 0%; in series [3], 1. The entries for the “Hepatotoxicity (acute)” value in series [2] and in series [4] were 0% and 1, respectively. For the same compound, the “Hepatotoxicity (cytolytic)” value in series [5] stood at 0. For the same compound, the “Hepatotoxicity (choleostasis)” value in series [6] is 0. In addition, the “Hepatotoxicity (severe hepatitis)” value in [7] was determined as 0. Moreover, in series [8], the “Hepatotoxicity (chronic liver disease)” value was found to be 0. Besides, the “Hepatotoxicity (cirrhosis)” value in series [9] is reported as 0. The “Hepatotoxicity (granulomatous hepatitis)” value in series [10] came to 0. Also, the “Hepatotoxicity (association with vascular disease)” value in series [11] is 0. For the same compound, the “Hepatotoxicity (steatosis)” value in series [12] amounted to 0. For the same compound, the “Hepatotoxicity (malignant tumour)” value in [13] came out at 0. The “Hepatotoxicity (benign tumour)” value in [14] is given as 0.

Regarding `CC[C@H]1OC(=O)[C@H](C)[C@@H](O[C@H]2C[C@@](C)(OC)[C@@H](O)[C@H](C)O2)[C@H](C)[C@@H](O[C@@H]2O[C@H](C)C[C@H](N(C)C)[C@H]2O)[C@](C)(O)C[C@](C)(F)C(=O)[C@H](C)[C@@H](O)[C@]1(C)O` [FLURITHROMYCIN], the “Hepatotoxicity (moderate)” value in series [1] is reported as 3.6%; in series [3] it was 1. Further, the “Hepatotoxicity (acute)” value worked out at 0% in series [2] and 0 in [4]. Moreover, in series [5], the “Hepatotoxicity (cytolytic)” value is 0. Besides, the “Hepatotoxicity (choleostasis)” value in [6] was 0. For the same compound, the “Hepatotoxicity (severe hepatitis)” value in series [7] stood at 0. For the same compound, in series [8], the “Hepatotoxicity (chronic liver disease)” value was 0. Further, the “Hepatotoxicity (cirrhosis)” value in series [9] was determined as 0. The “Hepatotoxicity (granulomatous hepatitis)” value in [10] is listed as 0. In [11], the “Hepatotoxicity (association with vascular disease)” value is listed as 0. The “Hepatotoxicity (steatosis)” value in series [12] came out at 0. The “Hepatotoxicity (malignant tumour)” value in series [13] is 0. Also, in [14], the “Hepatotoxicity (benign tumour)” value stood at 0.

The values are drawn from ChEMBL document CHEMBL3137667, “[Drug-induced liver injury; fourteenth updated edition of the bibliographic database of liver injuries and related drugs]” (Gastroenterol Clin Biol, 2004).
